Values of other authors, collected in patent publication US20230000835A1, “LYSINE-SPECIFIC HISTONE DEMETHYLASE INHIBITORS FOR THE TREATMENT OF MYELOPROLIFERATIVE NEOPLASMS” (Imago Biosciences, Inc., priority 2019, published 2023).

Tested on: primary myelofibrosis patients
Conditions: 50 to 100 mg/day in combination with prednisone; cited from earlier work

SMILES: O=C1CCC(N2C(=O)c3ccccc3C2=O)C(=O)N1 (centres unmarked) [Thalidomide]
- primary myelofibrosis patients with improved anemia and thrombocytopenia: approximately 60%
- primary myelofibrosis patients with reduced spleen size: approximately 20%
